Key:
NOD mice = conditions: references (3), (4); cited from earlier work
anti-idiotypic T cells = test: Treatment with p277 in IFA, proliferation of spleen cells to C9VDJ peptide (FIG. 9); format: in vivo; conditions: NOD female mice, 12 weeks old, treated in IFA subcutaneously; 2 or 5 weeks after treatment
Protocol: FIGS. 4A and B Spontaneous anti-idiotypic responses in naive female (FIG. 4A) and male (FIG. 4B) NOD mice. T cell responses to hsp60 (idiotype) and to the C9 clone (anti-idiotype) were measured in naive female and male NOD mice. Ten female and 10 male NOD mice were sacrificed at 4, 6, 8, 10, 13 and 21 week of age and their spleens were taken for a T cell proliferative assay. Spleen cells were tested at 200,000 cells/0.2 cc in microtiter wells for proliferative responses to either human hsp60 (5 μg/ml) or the C9 clone (20,000 cells/well irradiated at 5000 rad). The a proliferative response was measured by adding 3H-thymidine to the culture for the last 16 h of a 72 h stimulation. The incorporated 3H-thymidine was measured on a β-counter and the stimulation index (SI) was calculated as cpm incorporation in the presence of antigen/cpm incorporation in the absence of antigen. Individual mice were tested separately and the mean±SD for each time point was calculated.
NOD female mice, 12 weeks old, were immunized with p277 or p278 in IFA, […] per mouse subcutaneously, or left untreated 10 mice per group. At 2 or 5 weeks after treatment 5 mice of each group were sacrificed their spleens removed and tested individually in a proliferation assay to C9VDJ peptide 5 μg/ml, as described in FIG. 4.

Sequence: VLGGGCALLRCIPALDSLTPANED [p277]
- Effect of vaccination on diabetes (NOD mice): prevent (3) or even reverse diabetes
- Anti-C9 response (proliferation to C9VDJ peptide 5 μg/ml) (anti-idiotypic T cells): induces anti-C9 response

— patent US6096314A, “Peptides and pharmaceutical compositions comprising them” (Yeda Research and Development Co. Ltd., priority 1994, dated 2000)
